{"source": "paper PMC11365428", "about": "(The Journal of Biological Chemistry, 2024)", "key": {"apTKRPR-B": {"target": "T1, apTKRPR-B (Aplysia californica, UniProt A0AAU7STS1)", "T1 sequence (A0AAU7STS1 1-447)": "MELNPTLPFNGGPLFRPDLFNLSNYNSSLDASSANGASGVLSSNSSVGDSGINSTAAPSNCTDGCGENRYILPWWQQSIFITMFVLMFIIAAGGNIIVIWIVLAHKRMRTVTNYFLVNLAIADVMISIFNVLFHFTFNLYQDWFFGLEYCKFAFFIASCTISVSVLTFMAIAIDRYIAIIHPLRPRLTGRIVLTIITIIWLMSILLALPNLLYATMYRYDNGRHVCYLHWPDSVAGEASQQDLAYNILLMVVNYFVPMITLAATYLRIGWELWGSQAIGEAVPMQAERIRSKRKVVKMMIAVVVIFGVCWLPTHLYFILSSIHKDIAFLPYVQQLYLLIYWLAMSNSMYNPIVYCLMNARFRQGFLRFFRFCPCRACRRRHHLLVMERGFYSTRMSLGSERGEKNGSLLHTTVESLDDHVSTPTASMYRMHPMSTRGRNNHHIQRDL", "test": "IP1 accumulation assay, CHO-K1 cells transiently expressing apTKRPR-B", "assay_type": "cell-based", "method": "To express putative Aplysia receptors transiently in CHO-K1 cells, the cDNAs were subcloned into the pcDNA3.1(+) or pcDNA3.1(+)-FLAG (for ELISA experiments only, see “Cell surface expression analysis by ELISA” section) expression vector. On the day before transfection, the CHO-K1 cells were passaged into 60 mm diameter tissue culture–treated dishes, and the transfection experiments were performed when the cells were grown to 70 to 90% confluence. CHO-K1 cells were transfected with the cDNA plasmid constructs using Turbofect Transfection reagent (Thermo Fisher Scientific, R0531), following the manufacturer’s instructions. […] The DNA/TurboFect mixture dropwise was then added to the dish, and the cells were incubated at 37 °C in a humidified incubator containing 5% CO2 overnight.\nOn the third day, the activation of the putative receptors was detected by monitoring intracellular IP1 concentration using an IP-One Gq kit (Cisbio, 62IPAPEB) in Tecan Spark. Except for using 0.5x reagent, all other procedures were performed following the manufacturer’s instructions. IP1 accumulation assay measures the accumulation of IP1, which is hydrolyzed from the second messenger, and inositol triphosphate. Inositol triphosphate is generated by the Gαq pathway when a GPCR is activated by an appropriate ligand."}, "apTKRPR-B T391": {"target": "apTKRPR-B T391 (Aplysia californica, UniProt A0AAU7STS1, DEL392-447)", "test": "IP1 accumulation assay, C-terminal truncate apTKRPR-B T391", "assay_type": "cell-based", "method": "To express putative Aplysia receptors transiently in CHO-K1 cells, the cDNAs were subcloned into the pcDNA3.1(+) or pcDNA3.1(+)-FLAG (for ELISA experiments only, see “Cell surface expression analysis by ELISA” section) expression vector. On the day before transfection, the CHO-K1 cells were passaged into 60 mm diameter tissue culture–treated dishes, and the transfection experiments were performed when the cells were grown to 70 to 90% confluence. CHO-K1 cells were transfected with the cDNA plasmid constructs using Turbofect Transfection reagent (Thermo Fisher Scientific, R0531), following the manufacturer’s instructions. In brief, 4 μg of the putative receptor plasmids [in pcDNA3.1(+) or pcDNA3.1(+)-FLAG] were mixed with 400 μl of Opti-MEM (Gibco, 11058021), followed by the addition of 15 μl of TurboFect Transfection reagent and incubated at room temperature for 15 min. […]\nThe next day, transfected cells were trypsinized and reseeded in an opaque white 96-well half-area (Corning, 3688) or 384-well tissue culture–treated plates (Corning, 3570) at a density of 20,000 cells/well in F-12K and 10% FBS and incubated at 37 °C in a humidified incubator containing 5% CO2 overnight. On the third day, the activation of the putative receptors was detected by monitoring intracellular IP1 concentration using an IP-One Gq kit (Cisbio, 62IPAPEB) in Tecan Spark. […]"}}, "note": "Non-standard residues stand in square brackets, D forms with d. Residues, ends and D or L forms follow the SMILES beside them. pGlu = O=C1CC[C@@H](C(=O)O)N1"}
{"smiles": "CC(C)C[C@H](NC(=O)[C@H](Cc1c[nH]cn1)NC(=O)[C@@H]1CCCN1C(=O)[C@@H]1CCC(=O)N1)C(=O)NCC(=O)N[C@@H](Cc1ccccc1)C(=O)N[C@@H](Cc1c[nH]cn1)C(=O)NCC(=O)N[C@@H](CO)C(=O)N[C@@H](CCCNC(=N)N)C(N)=O", "note": "[apTKRP-2b] ([pGlu]PHLGFHGSR-NH2)", "values": [{"measurement": "EC50", "setting": "apTKRPR-B", "result": 5.37, "unit": "nM"}, {"measurement": "IP1 response of apTKRPR-B in screening", "setting": "apTKRPR-B; 10^-5 M compared with 10^-10 M (control), n = 3, no Gαq cotransfection", "result": "responded"}, {"measurement": "EC50", "setting": "apTKRPR-B T391", "result": 21.4, "unit": "nM"}]}
